Experimental data from publication PMC12337342 (Proceedings of the National Academy of Sciences of the …, 2025).

What follows are compounds tested against T1, AUX1 (Arabidopsis thaliana, UniProt Q96247) (assay: inhibition of [3H]IAA uptake in AUX1-expressing HEK293T cells). Conditions: about 30 nM [3H]IAA, pH 6.0, 37 °C, 10 min.
T1 sequence (Q96247 1-485): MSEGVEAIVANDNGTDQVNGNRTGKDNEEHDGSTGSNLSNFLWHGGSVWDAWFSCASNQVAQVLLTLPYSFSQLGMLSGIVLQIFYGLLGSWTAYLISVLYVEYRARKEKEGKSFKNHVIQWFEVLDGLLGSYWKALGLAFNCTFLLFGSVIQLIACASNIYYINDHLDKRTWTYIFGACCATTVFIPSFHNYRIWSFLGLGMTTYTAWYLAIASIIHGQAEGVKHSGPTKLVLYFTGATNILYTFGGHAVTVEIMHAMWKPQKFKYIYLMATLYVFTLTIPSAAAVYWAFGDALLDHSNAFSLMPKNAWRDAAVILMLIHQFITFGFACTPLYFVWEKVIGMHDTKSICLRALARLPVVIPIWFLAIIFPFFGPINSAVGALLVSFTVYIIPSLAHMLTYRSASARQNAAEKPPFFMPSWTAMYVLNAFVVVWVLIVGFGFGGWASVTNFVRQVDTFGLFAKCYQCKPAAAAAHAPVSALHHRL
Assay type: cell-based

SMILES | % relative auxin accumulation at 50 μM inhibitor
O=C(O)Cc1ccc(O)c(Cl)c1 [CHPAA, 3-chloro-4-hydroxyphenylacetic acid] | reduced the uptake of [^3H]IAA in AUX1-expressing HEK293T cells
O=C(O)COc1ccc2ccccc2c1 [2-NOA, 2-naphthoxyacetic acid] | reduced the uptake of [^3H]IAA in AUX1-expressing HEK293T cells
O=C(O)COc1cccc2ccccc12 [1-NOA, 1-naphthoxyacetic acid] | reduced the uptake of [^3H]IAA in AUX1-expressing HEK293T cells
